Like-named read-outs stand apart in the source and are kept apart here.
System: human umbilical vein endothelial cells (HUVEC)
Experiment: HUVEC proliferation assay (VEGF-stimulated, MTT);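 for % inhibition of the proliferation of HUVEC: relative to VEGF-stimulated control minus starvation-medium baseline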
Format: cell-based
Conditions: for % inhibition of the proliferation of HUVEC / % inhibition: crude reaction mixtures; for % inhibition: Library III, HUVEC proliferation, nominal concentration of 0.5 nM; for IC50: Homo sapiens, HUVEC
[1] = Library II, Y=S, 0.5 mM (column head; text: nominal 0.5 nM)
[2] = Library II, Y=S, 2 mM (column head; text: nominal 2 nM)
[3] = Library I, Y = CO, nominal concentration of 10 nM
[4] = Library I, Y = NH, nominal concentration of 10 nM
[5] = Library I, Y = O, nominal concentration of 10 nM

CCN(CCNC(=O)c1ccccc1Sc1ccc2c(/C=C/c3ccccn3)n[nH]c2c1)c1cccc(C)c1
% inhibition of the proliferation of HUVEC [1]: 17%
% inhibition of the proliferation of HUVEC [2]: 1%

O=C(Nc1ccc(C(F)(F)F)cn1)c1ccccc1Sc1ccc2c(/C=C/c3ccccn3)n[nH]c2c1
% inhibition: 20%

O=C(NCC1(O)CCCCC1)c1ccccc1Sc1ccc2c(/C=C/c3ccccn3)n[nH]c2c1 [drawing 1197]
% inhibition: 2%

O=C(Nc1cccc(F)c1)c1ccccc1Sc1ccc2c(/C=C/c3ccccn3)n[nH]c2c1
% inhibition: −11%

CCCc1cccc(NC(=O)c2ccccc2Sc2ccc3c(/C=C/c4ccccn4)n[nH]c3c2)c1
% inhibition: −42%

CC(C)(C)CNC(=O)c1ccccc1Sc1ccc2c(/C=C/c3ccccn3)n[nH]c2c1 [drawing 687]
% inhibition of the proliferation of HUVEC [1]: 5%
% inhibition of the proliferation of HUVEC [2]: −6%

C=C(C)c1ccccc1NC(=O)c1ccccc1Sc1ccc2c(/C=C/c3ccccn3)n[nH]c2c1
% inhibition: −41%

N#Cc1nc(NC(=O)c2ccccc2Sc2ccc3c(/C=C/c4ccccn4)n[nH]c3c2)[nH]c1C#N
% inhibition: −28%

C#CCNC(=O)c1ccccc1Sc1ccc2c(/C=C/c3ccccn3)n[nH]c2c1 [drawing 1123]
% inhibition: 9%

CSc1ccc(NC(=O)c2ccccc2Sc2ccc3c(/C=C/c4ccccn4)n[nH]c3c2)cc1
% inhibition: −7%

O=C(Nc1cccc(-c2cc[nH]n2)c1)c1ccccc1Sc1ccc2c(/C=C/c3ccccn3)n[nH]c2c1
% inhibition: −3%

O=C(Nc1cccc(O)c1)c1ccccc1Sc1ccc2c(/C=C/c3ccccn3)n[nH]c2c1
% inhibition: −6%

NS(=O)(=O)c1ccc(CNC(=O)c2ccccc2Sc2ccc3c(/C=C/c4ccccn4)n[nH]c3c2)cc1
% inhibition of the proliferation of HUVEC [1]: 1%
% inhibition of the proliferation of HUVEC [2]: 13%

CC(C)(CO)CNC(=O)c1ccccc1Sc1ccc2c(/C=C/c3ccccn3)n[nH]c2c1
% inhibition of the proliferation of HUVEC [1]: 8%
% inhibition of the proliferation of HUVEC [2]: 22%

O=Nc1c(O)nc(O)nc1NC(=O)c1ccccc1Sc1ccc2c(/C=C/c3ccccn3)n[nH]c2c1
% inhibition: −18%

CN(CCCNC(=O)c1ccccc1Sc1ccc2c(/C=C/c3ccccn3)n[nH]c2c1)c1ccccc1
% inhibition of the proliferation of HUVEC [1]: 18%
% inhibition of the proliferation of HUVEC [2]: 25%

COc1ccc(NC(=O)c2ccccc2Sc2ccc3c(/C=C/c4ccccn4)n[nH]c3c2)c(C)c1
% inhibition: 0%

COc1cc(NC(=O)c2ccccc2Sc2ccc3c(/C=C/c4ccccn4)n[nH]c3c2)cc(C(F)(F)F)c1
% inhibition: 10%

CCCCOc1ccc(NC(=O)c2ccccc2Sc2ccc3c(/C=C/c4ccccn4)n[nH]c3c2)cc1
% inhibition: −6%

O=C(Nc1cc(O)[nH]n1)c1ccccc1Sc1ccc2c(/C=C/c3ccccn3)n[nH]c2c1
% inhibition: −17%

O=C(NC1CC1)c1ccc2c(-c3nc4ccccc4[nH]3)n[nH]c2c1 [drawing 587]
% inhibition of the proliferation of HUVEC [3]: 20%
% inhibition of the proliferation of HUVEC [4]: 0%
% inhibition of the proliferation of HUVEC [5]: 43%

O=C(NCC1CCCO1)c1ccccc1Sc1ccc2c(/C=C/c3ccccn3)n[nH]c2c1 (stereo not drawn)
% inhibition of the proliferation of HUVEC [1]: 23%
% inhibition of the proliferation of HUVEC [2]: 44%

CC(=O)NCCNC(=O)c1ccc2c(-c3nc4ccccc4[nH]3)n[nH]c2c1
% inhibition of the proliferation of HUVEC [3]: 14%
% inhibition of the proliferation of HUVEC [4]: 12%
% inhibition of the proliferation of HUVEC [5]: 90%

CC(=O)c1ccc(NC(=O)c2ccccc2Sc2ccc3c(/C=C/c4ccccn4)n[nH]c3c2)cc1
% inhibition: 6%

O=C(NNCC(F)(F)F)c1ccccc1Sc1ccc2c(/C=C/c3ccccn3)n[nH]c2c1
% inhibition of the proliferation of HUVEC [1]: 16%
% inhibition of the proliferation of HUVEC [2]: 42%

O=C(NCS(=O)(=O)O)c1ccccc1Sc1ccc2c(/C=C/c3ccccn3)n[nH]c2c1
% inhibition of the proliferation of HUVEC [1]: 2%
% inhibition of the proliferation of HUVEC [2]: −3%

O=C(NCCCO)c1ccccc1Sc1ccc2c(/C=C/c3ccccn3)n[nH]c2c1
% inhibition of the proliferation of HUVEC [1]: 24%
% inhibition of the proliferation of HUVEC [2]: 31%

O=C(NCc1cccs1)c1ccccc1Sc1ccc2c(/C=C/c3ccccn3)n[nH]c2c1
% inhibition: 23%

O=C(Nc1ccccc1F)c1ccccc1Sc1ccc2c(/C=C/c3ccccn3)n[nH]c2c1
% inhibition: 17%

O=C(CNC(=O)c1ccccc1Sc1ccc2c(/C=C/c3ccccn3)n[nH]c2c1)NO
% inhibition of the proliferation of HUVEC [1]: 5%
% inhibition of the proliferation of HUVEC [2]: 9%

O=C(NCCCn1ccnc1)c1ccccc1Sc1ccc2c(/C=C/c3ccccn3)n[nH]c2c1
% inhibition of the proliferation of HUVEC [1]: 23%
% inhibition of the proliferation of HUVEC [2]: 23%

O=C(Nc1ccc2[nH]ncc2c1)c1ccc2c(-c3nc4ccccc4[nH]3)n[nH]c2c1
% inhibition of the proliferation of HUVEC [3]: 28%
% inhibition of the proliferation of HUVEC [4]: −1%
% inhibition of the proliferation of HUVEC [5]: 80%

O=C(NC1CCS(=O)(=O)C1)c1ccc2c(-c3nc4ccccc4[nH]3)n[nH]c2c1 (stereo not drawn) [drawing 576]
% inhibition of the proliferation of HUVEC [3]: 47%
% inhibition of the proliferation of HUVEC [4]: 10%
% inhibition of the proliferation of HUVEC [5]: 17%

O=C(NCCCO)c1ccc2c(-c3nc4ccccc4[nH]3)n[nH]c2c1
% inhibition of the proliferation of HUVEC [3]: 5%
% inhibition of the proliferation of HUVEC [4]: 16%
% inhibition of the proliferation of HUVEC [5]: 25%

NC(=O)c1ccc(NC(=O)c2ccccc2Sc2ccc3c(/C=C/c4ccccn4)n[nH]c3c2)nc1
% inhibition: −2%

O=C(NCCSCCO)c1ccccc1Sc1ccc2c(/C=C/c3ccccn3)n[nH]c2c1
% inhibition: −31%

O=C(NC1CCCCC1O)c1ccccc1Sc1ccc2c(/C=C/c3ccccn3)n[nH]c2c1 (stereo not drawn)
% inhibition: −6%

O=C(NC1Cc2ccccc2C1)c1ccccc1Sc1ccc2c(/C=C/c3ccccn3)n[nH]c2c1
% inhibition: 7%

Cc1ccc(NC(=O)c2ccccc2Sc2ccc3c(/C=C/c4ccccn4)n[nH]c3c2)cc1O
% inhibition: 6%

O=C(NO)c1ccccc1Sc1ccc2c(/C=C/c3ccccn3)n[nH]c2c1
% inhibition of the proliferation of HUVEC [1]: 7%
% inhibition of the proliferation of HUVEC [2]: 25%

O=C(Nc1cccc(CO)c1)c1ccccc1Sc1ccc2c(/C=C/c3ccccn3)n[nH]c2c1
% inhibition: 14%

CC(C)(C)c1ccc(O)c(NC(=O)c2ccccc2Sc2ccc3c(/C=C/c4ccccn4)n[nH]c3c2)c1
% inhibition: −3%

COC(=O)c1ccccc1NC(=O)c1ccccc1Sc1ccc2c(/C=C/c3ccccn3)n[nH]c2c1
% inhibition: 3%

Nc1cccc(C(=O)c2ccc3c(/C=N/n4cccc4)n[nH]c3c2)c1 [Example 44]
IC50 (read-out: HUVEC IC50): > 700 nM

CC(C)Oc1cccc(NC(=O)c2ccccc2Sc2ccc3c(/C=C/c4ccccn4)n[nH]c3c2)c1
% inhibition: 1%

O=C(Nc1cnccn1)c1ccccc1Sc1ccc2c(/C=C/c3ccccn3)n[nH]c2c1
% inhibition: −1%

CC(NC(=O)c1ccccc1Sc1ccc2c(/C=C/c3ccccn3)n[nH]c2c1)c1ccc(Cl)cc1 (stereo not drawn)
% inhibition: 14%

COC(=O)c1cc(NC(=O)c2ccc3c(-c4nc5ccccc5[nH]4)n[nH]c3c2)ccc1O [drawing 610]
% inhibition of the proliferation of HUVEC [1]: 39%
% inhibition of the proliferation of HUVEC [2]: 15%

CC(=O)c1sc(NC(=O)c2ccccc2Sc2ccc3c(/C=C/c4ccccn4)n[nH]c3c2)nc1C
% inhibition: −2%

CC(C)(C)c1cc(NC(=O)c2ccccc2Sc2ccc3c(/C=C/c4ccccn4)n[nH]c3c2)n[nH]1
% inhibition: −21%

CC(=O)NCCNC(=O)c1ccccc1Sc1ccc2c(/C=C/c3ccccn3)n[nH]c2c1
% inhibition of the proliferation of HUVEC [1]: 15%
% inhibition of the proliferation of HUVEC [2]: 27%

O=C(NC1CCSC1=O)c1ccccc1Sc1ccc2c(/C=C/c3ccccn3)n[nH]c2c1 (stereo not drawn) [drawing 1141]
% inhibition: −8%

O=C(Nc1nnc(C2CC2)s1)c1ccccc1Sc1ccc2c(/C=C/c3ccccn3)n[nH]c2c1
% inhibition: −20%

O=C(c1ccc2c(-c3nc4ccccc4[nH]3)n[nH]c2c1)N1CCCC(O)C1 (stereo not drawn)
% inhibition of the proliferation of HUVEC [3]: 37%
% inhibition of the proliferation of HUVEC [4]: −5%
% inhibition of the proliferation of HUVEC [5]: 20%

NC(=O)NNC(=O)c1ccccc1Sc1ccc2c(/C=C/c3ccccn3)n[nH]c2c1
% inhibition of the proliferation of HUVEC [1]: 19%
% inhibition of the proliferation of HUVEC [2]: 5%

O=C(Nc1cc(-c2cccs2)n[nH]1)c1ccccc1Sc1ccc2c(/C=C/c3ccccn3)n[nH]c2c1
% inhibition: −11%

O=C(NC1CCN(Cc2ccccc2)CC1)c1ccccc1Sc1ccc2c(/C=C/c3ccccn3)n[nH]c2c1
% inhibition of the proliferation of HUVEC [1]: 44%
% inhibition of the proliferation of HUVEC [2]: 19%

COc1ccccc1CCNC(=O)c1ccccc1Sc1ccc2c(/C=C/c3ccccn3)n[nH]c2c1
% inhibition: 10%

O=C(Nc1cccc(C(F)(F)F)c1)c1ccccc1Sc1ccc2c(/C=C/c3ccccn3)n[nH]c2c1
% inhibition: 4%

CNCCNC(=O)c1ccccc1Sc1ccc2c(/C=C/c3ccccn3)n[nH]c2c1 [Example 35(gg), 6-[2-(2-(Methylamino)ethylcarbamoyl)phenylsulfanyl]-3-E-[2-(pyridin-2-yl)ethenyl]-1H-indazole]
IC50 (+ albumin, read-out: HUVEC + albumin IC50): > 100 nM

O=C(Nc1ncc(Cl)s1)c1ccccc1Sc1ccc2c(/C=C/c3ccccn3)n[nH]c2c1
% inhibition: −29%

CCSCCNC(=O)c1ccccc1Sc1ccc2c(/C=C/c3ccccn3)n[nH]c2c1
% inhibition: 7%

CC1CCCCN1CCCNC(=O)c1ccccc1Sc1ccc2c(/C=C/c3ccccn3)n[nH]c2c1 (stereo not drawn)
% inhibition of the proliferation of HUVEC [1]: 25%
% inhibition of the proliferation of HUVEC [2]: 15%

O=C(NC(CO)(CO)CO)c1ccccc1Sc1ccc2c(/C=C/c3ccccn3)n[nH]c2c1
% inhibition: 14%

O=C(c1ccc2c(-c3nc4ccccc4[nH]3)n[nH]c2c1)N1CCCC(CO)C1 (stereo not drawn)
% inhibition of the proliferation of HUVEC [3]: 96%
% inhibition of the proliferation of HUVEC [4]: 6%
% inhibition of the proliferation of HUVEC [5]: 134%

CC(C)CC(C)NC(=O)c1ccccc1Sc1ccc2c(/C=C/c3ccccn3)n[nH]c2c1 (stereo not drawn)
% inhibition of the proliferation of HUVEC [1]: 55%
% inhibition of the proliferation of HUVEC [2]: 50%

CC(=O)c1ccccc1NC(=O)c1ccccc1Sc1ccc2c(/C=C/c3ccccn3)n[nH]c2c1
% inhibition: −7%
